# Measured values published in PubChem BioAssay (NCI).
#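 Cultured in 96-well plates, cells were exposed to test compound for 48 hours across five concentrations. TGI marks complete inhibition of growth.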
# Experiments:
# Assay in all cases: growth of human tumour cells (NCI), 48 h
# [1] = system: HCC-2998 colon
# [2] = system: SF-268 CNS
# [3] = system: DU-145 prostate
# [4] = system: SK-MEL-5 melanoma
# [5] = system: IGROV1 ovarian
# [6] = system: UACC-62 melanoma
# [7] = system: HT29 colon
# [8] = system: MCF7 breast
# [9] = system: SNB-19 CNS
# [10] = system: EKVX NSCLC
# [11] = system: NCI-H23 lung
# [12] = system: CCRF-CEM leukemia
# [13] = system: SK-MEL-2 melanoma
# [14] = system: HL-60(TB) leukemia
# [15] = system: M14 melanoma
# [16] = system: HCT-116 colon
# [17] = system: MDA-MB-231 breast
# [18] = system: MDA-MB-435
# [19] = system: TK-10 renal
# [20] = system: MOLT-4 leukemia
# [21] = system: U251 CNS
# [22] = system: LOX IMVI melanoma
# [23] = system: SR leukemia
# [24] = system: SK-MEL-28 melanoma
# [25] = system: SF-539 CNS
# [26] = system: 786-0 renal
# [27] = system: NCI-H460 lung
# [28] = system: T-47D breast
# [29] = system: OVCAR-4 ovarian
# [30] = system: OVCAR-3 ovarian
# [31] = system: K-562 leukemia
# [32] = system: SK-OV-3 ovarian
# [33] = system: SF-295 CNS
# [34] = system: SN12C renal
# [35] = system: HS 578T breast
# [36] = system: RXF 393 renal
# [37] = system: MDA-N
# [38] = system: SNB-75 CNS
# [39] = system: NCI-H226 lung
# [40] = system: OVCAR-5 ovarian
# [41] = system: NCI-H522 lung
# [42] = system: HCT-15 colon
# [43] = system: PC-3 prostate
# [44] = system: A549 NSCLC
# [45] = system: COLO 205 colon
# [46] = system: OVCAR-8 ovarian
# [47] = system: KM12 colon
# [48] = system: SW-620 colon
# [49] = system: UO-31 renal
# [50] = system: HOP-62 NSCLC
# [51] = system: NCI/ADR-RES ovarian
# [52] = system: ACHN renal
# [53] = system: UACC-257 melanoma
# [54] = system: HOP-92 NSCLC
# [55] = system: CAKI-1 renal
# [56] = system: RPMI-8226 leukemia
# [57] = system: MALME-3M melanoma
# [58] = system: A498 renal
smiles,measurement,setting,value
Cc1ccc(S(=O)(=O)NC2C(=O)c3ccccc3C(=O)C2n2ccnc2)cc1 (stereo not given),TGI,[1],> 100 µM
same,TGI,[2],> 100 µM
same,TGI,[3],30.7 µM
same,TGI,[4],> 100 µM
same,TGI,[5],> 100 µM
same,TGI,[6],> 100 µM
same,TGI,[7],> 100 µM
same,TGI,[8],> 100 µM
same,TGI,[9],> 100 µM
same,TGI,[10],> 100 µM
same,TGI,[11],> 100 µM
same,TGI,[12],52.9 µM
same,TGI,[13],> 100 µM
same,TGI,[14],46.4 µM
same,TGI,[15],> 100 µM
same,TGI,[16],53.1 µM
same,TGI,[17],29.5 µM
same,TGI,[18],33 µM
same,TGI,[19],> 100 µM
same,TGI,[20],80.8 µM
same,TGI,[21],> 100 µM
same,TGI,[22],25 µM
same,TGI,[23],> 100 µM
same,TGI,[24],> 100 µM
same,TGI,[25],> 100 µM
same,TGI,[26],32.8 µM
same,TGI,[27],> 100 µM
same,TGI,[28],38.8 µM
same,TGI,[29],> 100 µM
same,TGI,[30],> 100 µM
same,TGI,[31],> 100 µM
same,TGI,[32],> 100 µM
same,TGI,[33],> 100 µM
same,TGI,[34],28.3 µM
same,TGI,[35],> 100 µM
same,TGI,[36],> 100 µM
same,TGI,[37],29 µM
same,TGI,[38],> 100 µM
same,TGI,[39],> 100 µM
same,TGI,[40],> 100 µM
same,TGI,[41],5.77 µM
same,TGI,[42],> 100 µM
same,TGI,[43],> 100 µM
same,TGI,[44],> 100 µM
same,TGI,[45],> 100 µM
same,TGI,[46],> 100 µM
same,TGI,[47],> 100 µM
same,TGI,[48],> 100 µM
same,TGI,[49],> 100 µM
same,TGI,[50],> 100 µM
same,TGI,[51],> 100 µM
same,TGI,[52],> 100 µM
same,TGI,[53],> 100 µM
same,TGI,[54],> 100 µM
same,TGI,[55],> 100 µM
same,TGI,[56],> 100 µM
CC(C)=CCC/C(C)=C\CC/C(C)=C/CO,TGI,[1],43.1 µM
same,TGI,[2],> 100 µM
same,TGI,[3],> 100 µM
same,TGI,[4],61.8 µM
same,TGI,[5],55.9 µM
same,TGI,[7],37.6 µM
same,TGI,[8],38.2 µM
same,TGI,[9],65.6 µM
same,TGI,[10],> 100 µM
same,TGI,[11],62.2 µM
same,TGI,[12],43.7 µM
same,TGI,[13],30.4 µM
same,TGI,[14],35.4 µM
same,TGI,[15],37.2 µM
same,TGI,[16],36.9 µM
same,TGI,[17],> 100 µM
same,TGI,[18],38.3 µM
same,TGI,[19],> 100 µM
same,TGI,[20],42.9 µM
same,TGI,[21],33.3 µM
same,TGI,[22],> 10 µM
same,TGI,[23],47.6 µM
same,TGI,[24],> 100 µM
same,TGI,[25],47.8 µM
same,TGI,[26],31.1 µM
same,TGI,[27],> 10 µM
same,TGI,[28],> 100 µM
same,TGI,[29],50.4 µM
same,TGI,[30],30.4 µM
same,TGI,[31],42.2 µM
same,TGI,[33],57.2 µM
same,TGI,[34],> 100 µM
same,TGI,[35],67.9 µM
same,TGI,[37],> 100 µM
same,TGI,[38],> 100 µM
same,TGI,[39],> 100 µM
same,TGI,[40],> 100 µM
same,TGI,[41],27.2 µM
same,TGI,[42],> 100 µM
same,TGI,[43],> 100 µM
same,TGI,[44],> 100 µM
same,TGI,[45],> 100 µM
same,TGI,[46],48.7 µM
same,TGI,[47],> 100 µM
same,TGI,[48],> 100 µM
same,TGI,[49],> 100 µM
same,TGI,[50],40.3 µM
same,TGI,[51],42.6 µM
same,TGI,[52],70.7 µM
same,TGI,[53],> 100 µM
same,TGI,[57],32.3 µM
same,TGI,[54],22.7 µM
same,TGI,[55],> 10 µM
same,TGI,[56],36.9 µM
CN(C)C=Nc1ccc2nonc2c1,TGI,[1],> 100 µM
same,TGI,[2],> 100 µM
same,TGI,[3],> 100 µM
same,TGI,[4],> 100 µM
same,TGI,[5],> 100 µM
same,TGI,[6],> 100 µM
same,TGI,[7],> 100 µM
same,TGI,[8],> 100 µM
same,TGI,[9],> 100 µM
same,TGI,[10],> 100 µM
same,TGI,[11],> 100 µM
same,TGI,[12],> 100 µM
same,TGI,[13],> 100 µM
same,TGI,[14],> 100 µM
same,TGI,[15],> 100 µM
same,TGI,[16],> 100 µM
same,TGI,[17],> 100 µM
same,TGI,[18],> 100 µM
same,TGI,[19],> 100 µM
same,TGI,[20],> 100 µM
same,TGI,[23],> 100 µM
same,TGI,[24],> 100 µM
same,TGI,[25],> 100 µM
same,TGI,[26],> 100 µM
same,TGI,[58],> 100 µM
same,TGI,[27],> 100 µM
same,TGI,[28],> 100 µM
same,TGI,[29],> 100 µM
same,TGI,[30],> 100 µM
same,TGI,[31],> 100 µM
same,TGI,[32],> 100 µM
same,TGI,[33],> 100 µM
same,TGI,[34],> 100 µM
same,TGI,[35],> 100 µM
same,TGI,[36],> 100 µM
same,TGI,[37],> 100 µM
same,TGI,[38],> 100 µM
same,TGI,[39],> 100 µM
same,TGI,[40],> 100 µM
same,TGI,[41],> 100 µM
same,TGI,[42],> 100 µM
same,TGI,[43],> 100 µM
same,TGI,[44],> 100 µM
same,TGI,[45],> 100 µM
same,TGI,[46],> 100 µM
same,TGI,[47],> 100 µM
same,TGI,[48],> 100 µM
same,TGI,[49],> 100 µM
same,TGI,[50],> 100 µM
same,TGI,[51],> 100 µM
same,TGI,[52],> 100 µM
same,TGI,[53],> 100 µM
same,TGI,[57],> 100 µM
same,TGI,[55],> 100 µM
same,TGI,[56],> 100 µM
Cc1occc(=O)c1O,TGI,[1],> 100 µM
same,TGI,[2],> 100 µM
same,TGI,[3],> 100 µM
same,TGI,[4],> 100 µM
same,TGI,[5],> 100 µM
same,TGI,[7],> 100 µM
same,TGI,[8],> 100 µM
same,TGI,[9],> 100 µM
same,TGI,[10],> 100 µM
same,TGI,[11],> 100 µM
same,TGI,[12],> 100 µM
same,TGI,[13],> 100 µM
same,TGI,[14],> 100 µM
same,TGI,[15],> 100 µM
same,TGI,[16],> 100 µM
same,TGI,[17],16.4 µM
same,TGI,[18],> 100 µM
same,TGI,[19],> 100 µM
same,TGI,[20],> 100 µM
same,TGI,[21],> 100 µM
same,TGI,[22],> 100 µM
same,TGI,[23],> 100 µM
same,TGI,[24],> 100 µM
same,TGI,[25],> 100 µM
same,TGI,[26],> 100 µM
same,TGI,[27],> 100 µM
same,TGI,[28],> 100 µM
same,TGI,[29],> 100 µM
same,TGI,[30],> 100 µM
same,TGI,[31],> 100 µM
same,TGI,[33],> 100 µM
same,TGI,[34],24.8 µM
same,TGI,[35],> 100 µM
same,TGI,[37],> 100 µM
same,TGI,[38],> 100 µM
same,TGI,[39],> 100 µM
same,TGI,[40],> 100 µM
same,TGI,[41],> 100 µM
same,TGI,[42],28.7 µM
same,TGI,[43],> 100 µM
same,TGI,[44],> 100 µM
same,TGI,[45],> 100 µM
same,TGI,[46],> 100 µM
same,TGI,[47],> 100 µM
same,TGI,[48],> 100 µM
same,TGI,[49],> 100 µM
same,TGI,[50],> 100 µM
same,TGI,[51],> 100 µM
same,TGI,[52],> 100 µM
same,TGI,[53],> 100 µM
same,TGI,[57],> 100 µM
same,TGI,[54],> 100 µM
same,TGI,[55],> 100 µM
same,TGI,[56],> 100 µM
CCCCCCCCCCCC1=NCCN1,TGI,[1],39 µM
same,TGI,[2],> 100 µM
same,TGI,[3],> 100 µM
same,TGI,[4],> 100 µM
same,TGI,[7],> 100 µM
same,TGI,[8],> 100 µM
same,TGI,[9],> 100 µM
same,TGI,[11],> 100 µM
same,TGI,[12],75.4 µM
same,TGI,[15],> 100 µM
same,TGI,[16],> 100 µM
same,TGI,[17],68.9 µM
same,TGI,[18],> 100 µM
same,TGI,[19],> 100 µM
same,TGI,[20],60.5 µM
same,TGI,[21],> 100 µM
same,TGI,[22],22.9 µM
same,TGI,[23],48 µM
same,TGI,[24],> 100 µM
same,TGI,[58],43.2 µM
same,TGI,[27],> 100 µM
same,TGI,[28],> 100 µM
same,TGI,[29],38.7 µM
same,TGI,[30],> 100 µM
same,TGI,[31],> 100 µM
same,TGI,[32],> 100 µM
same,TGI,[33],> 100 µM
same,TGI,[34],> 100 µM
same,TGI,[35],> 100 µM
same,TGI,[36],> 100 µM
same,TGI,[37],> 100 µM
same,TGI,[38],92.3 µM
same,TGI,[39],> 100 µM
same,TGI,[41],67.5 µM
same,TGI,[42],32.7 µM
same,TGI,[43],44.1 µM
same,TGI,[44],> 100 µM
same,TGI,[45],35.4 µM
same,TGI,[46],> 100 µM
same,TGI,[47],> 100 µM
same,TGI,[48],> 100 µM
same,TGI,[49],95.1 µM
same,TGI,[51],> 100 µM
same,TGI,[52],> 100 µM
same,TGI,[53],> 100 µM
same,TGI,[54],> 100 µM
